Assay [1] addresses T1, Cholinesterase (Equus caballus, UniProt P81908).
Description: (§1) Inhibition of horse serum BChE by Ellman's method
Assay [2] concerns the target T2, Acetylcholinesterase (Electrophorus electricus, UniProt O42275).
Description: (§2) Inhibition of electric eel AChE by Ellman's method
The target in assay [3] is T1, Cholinesterase. The source holds these as a separate data set.
Description: as §1
Assay [4] addresses T2, Acetylcholinesterase. This is another data set of the same source.
Description: as §2
In assay [5] the target is Cholinesterase (Equus caballus) (UniProt P81908). Nature of the assay: Inhibition of horse serum BChE at 40 uM by Ellman's method. (DTNB colorimetry detects thiols as they appear.)
Assay [6] has the same target. Briefly: Inhibition of horse serum BChE at 70 uM by Ellman's method.
Assay [7] concerns the target T1, Cholinesterase. Nature of the assay: Inhibition of horse serum BChE by Lineweaver-Burke plot.
Assay [8] deals with Acetylcholinesterase (Electrophorus electricus) (UniProt O42275). Nature of the assay: Mixed type inhibition of electric eel AChE by Ellman's method.
Assay [9] deals with Cholinesterase (Equus caballus) (UniProt P81908). Nature of the assay: Mixed type inhibition of horse serum BChE by Ellman's method.
The target is the same in assay [10]. Briefly: Inhibition of horse serum BChE at 100 uM by Ellman's method.
Assay [11] shares this target. Nature of the assay: Inhibition of horse serum BChE at 15 uM by Ellman's method.
The target in assay [12] is Acetylcholinesterase (Electrophorus electricus) (UniProt O42275). Briefly: Inhibition of electric eel AChE at 100 uM by Ellman's method.
Assay [13] has as its target Cholinesterase (Equus caballus) (UniProt P81908). Nature of the assay: Inhibition of horse serum BChE at 30 uM by Ellman's method.

Activity calls are given as the source filed them. No cut-off for these calls is given here. Where only a bound is given, the exact number is not on record here.

Sequence of Acetylcholinesterase (Electrophorus electricus) (O42275 24-633 limits assumed): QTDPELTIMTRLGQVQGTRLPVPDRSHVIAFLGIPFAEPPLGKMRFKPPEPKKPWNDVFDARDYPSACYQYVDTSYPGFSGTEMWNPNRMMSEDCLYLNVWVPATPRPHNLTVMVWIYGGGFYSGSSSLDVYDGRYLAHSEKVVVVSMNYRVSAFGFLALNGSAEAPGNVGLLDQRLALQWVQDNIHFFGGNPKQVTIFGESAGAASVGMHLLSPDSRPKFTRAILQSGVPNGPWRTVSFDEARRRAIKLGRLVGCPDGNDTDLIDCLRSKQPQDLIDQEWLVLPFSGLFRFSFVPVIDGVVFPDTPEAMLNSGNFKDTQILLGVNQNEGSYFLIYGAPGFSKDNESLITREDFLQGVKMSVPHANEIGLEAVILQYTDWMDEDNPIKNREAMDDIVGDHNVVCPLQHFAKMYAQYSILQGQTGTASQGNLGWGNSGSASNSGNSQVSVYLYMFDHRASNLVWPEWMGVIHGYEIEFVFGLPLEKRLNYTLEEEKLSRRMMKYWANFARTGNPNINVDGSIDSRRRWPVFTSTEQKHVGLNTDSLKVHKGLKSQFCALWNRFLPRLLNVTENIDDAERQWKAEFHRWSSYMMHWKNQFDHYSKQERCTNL
T2 sequence (O42275 whole entry): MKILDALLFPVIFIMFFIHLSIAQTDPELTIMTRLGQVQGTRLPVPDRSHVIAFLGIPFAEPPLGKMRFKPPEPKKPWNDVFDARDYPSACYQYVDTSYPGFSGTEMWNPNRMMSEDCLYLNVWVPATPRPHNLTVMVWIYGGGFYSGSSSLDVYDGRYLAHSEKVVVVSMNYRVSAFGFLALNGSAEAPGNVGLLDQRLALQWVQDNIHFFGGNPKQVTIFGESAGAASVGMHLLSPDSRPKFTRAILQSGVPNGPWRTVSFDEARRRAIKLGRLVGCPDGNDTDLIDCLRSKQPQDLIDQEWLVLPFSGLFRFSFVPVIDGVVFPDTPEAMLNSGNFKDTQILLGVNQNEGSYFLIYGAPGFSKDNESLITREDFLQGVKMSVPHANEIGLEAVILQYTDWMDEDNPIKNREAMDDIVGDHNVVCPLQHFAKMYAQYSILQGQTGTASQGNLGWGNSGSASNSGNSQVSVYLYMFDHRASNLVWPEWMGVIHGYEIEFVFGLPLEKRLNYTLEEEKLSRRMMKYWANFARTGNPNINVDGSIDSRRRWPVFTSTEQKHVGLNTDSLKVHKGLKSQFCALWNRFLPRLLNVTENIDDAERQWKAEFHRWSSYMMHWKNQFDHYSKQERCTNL
T1 sequence (P81908 whole entry): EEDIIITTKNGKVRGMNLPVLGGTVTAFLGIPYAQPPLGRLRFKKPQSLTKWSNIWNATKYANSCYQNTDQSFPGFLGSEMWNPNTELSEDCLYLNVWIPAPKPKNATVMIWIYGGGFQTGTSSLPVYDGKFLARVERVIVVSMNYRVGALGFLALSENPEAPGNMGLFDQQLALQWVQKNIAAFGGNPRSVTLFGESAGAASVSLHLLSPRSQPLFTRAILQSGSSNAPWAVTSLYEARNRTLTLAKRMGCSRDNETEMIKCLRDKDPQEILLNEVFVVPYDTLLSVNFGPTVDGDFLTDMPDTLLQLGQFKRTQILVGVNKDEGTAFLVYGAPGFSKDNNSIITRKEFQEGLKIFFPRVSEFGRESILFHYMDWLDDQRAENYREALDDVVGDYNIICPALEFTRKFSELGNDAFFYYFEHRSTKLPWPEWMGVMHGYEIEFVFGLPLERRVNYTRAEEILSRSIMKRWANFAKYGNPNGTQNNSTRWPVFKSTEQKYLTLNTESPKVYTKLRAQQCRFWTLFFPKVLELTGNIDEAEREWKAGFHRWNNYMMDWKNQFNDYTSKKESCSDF
Sequence of Cholinesterase (Equus caballus) (P81908 whole entry): as above

Turning to `Cc1ccc(C)c(C(=O)CC(C(=O)Nc2ccccc2)N2CCCCC2)c1` (racemic), the IC50 at Cholinesterase [1] was 17.2 µM; against Acetylcholinesterase [2], over 10 µM.
Turning to `COc1ccc(C(=O)CC(C(=O)Nc2ccccc2)N2CCCCC2)cc1` (racemic), the IC50 at Cholinesterase [1] is over 40 µM; at Acetylcholinesterase [2], over 10 µM.
Consider `O=C(CC(C(=O)Nc1ccccc1)N1CCOCC1)c1ccc(Cl)cc1` (racemic), for which the 50% inhibitory concentration (IC50) entry against Cholinesterase [3] and against Acetylcholinesterase [4] was “ND(Insoluble)” each time.
For the molecule `O=C(CC(C(=O)Nc1ccccc1)N1CCCCC1)c1ccc(Cl)cc1` (racemic), the IC50 result at Cholinesterase [3] and at Acetylcholinesterase [4] was “ND(Insoluble)” each time.
As to `O=C(CC(C(=O)Nc1ccccc1)N1CCOCC1)c1ccc2c(c1)CCCC2` (racemic), the IC50 against Acetylcholinesterase [2] was over 30 µM. The inhibition in assay [5] turned out to be 13%.
For the molecule `Cc1ccc(C)c(C(=O)CC(C(=O)Nc2ccccc2)N2CCOCC2)c1` (racemic), the IC50 against Cholinesterase [1] is 34.1 µM; at Acetylcholinesterase [2], over 100 µM.
Molecule `CC(C)c1ccc(C(=O)CC(C(=O)Nc2ccccc2)N2CCCCC2)cc1` (racemic) displayed an IC50 at Cholinesterase [1] of 7.06 µM.
As to `CC(C)c1ccc(C(=O)CC(NCCCCCCCCNC(CC(=O)c2ccc(C(C)C)cc2C(C)C)C(=O)Nc2ccccc2)C(=O)Nc2ccccc2)c(C(C)C)c1` (mixture of isomers), the IC50 entry at Cholinesterase [3] and at Acetylcholinesterase [4] was “ND(Insoluble)” in each case.
`COc1ccc(C(=O)CC(C(=O)Nc2ccccc2)n2ccnc2)cc1` (racemic): the IC50 was found to be 30.4 µM at Cholinesterase [1] and 7.85 µM at Acetylcholinesterase [2].
Turning to `O=C(CC(C(=O)Nc1ccccc1)n1ccnc1)c1ccc2c(c1)CCCC2` (racemic), the inhibition in assay [5] amounted to 17%.
In assay [6], `Cc1ccc(C)c(C(=O)CC(C(=O)Nc2ccccc2)n2ccnc2)c1` (racemic) gave an inhibition of 42%. Further, on Acetylcholinesterase [2], the midpoint of inhibition, the IC50, lay at 27.9 µM.
Consider `CC(C)c1ccc(C(=O)CC(C(=O)Nc2ccccc2)N2CCOCC2)c(C(C)C)c1` (racemic), for which, at Cholinesterase [7], the affinity corresponds to a Ki of 3.18 µM. Moreover, the inhibition entry in assay [8] and in [9] was “Active” throughout. The molecule further had an IC50 against Cholinesterase [1] of 2.48 µM.
For the molecule `Cc1ccc(C)c(C(=O)CC(NCCCCCCCCNC(CC(=O)c2cc(C)ccc2C)C(=O)Nc2ccccc2)C(=O)Nc2ccccc2)c1` (mixture of isomers), the IC50 result against Cholinesterase [3] and against Acetylcholinesterase [4] was “ND(Insoluble)” each time.
`O=C(CC(C(=O)Nc1ccccc1)N1CCOCC1)c1ccccc1` (racemic) returned an inhibition in [10] of 21.6%. The molecule also returned an IC50 against Acetylcholinesterase [2] of over 100 µM.
Take `O=C(CC(NCCCCCCCCNC(CC(=O)c1ccc(Cl)cc1)C(=O)Nc1ccccc1)C(=O)Nc1ccccc1)c1ccc(Cl)cc1` (mixture of isomers): the IC50 entry at Cholinesterase [3] and at Acetylcholinesterase [4] was “ND(Insoluble)” each time.
In the case of `CC(C)c1ccc(C(=O)CC(NCCCCCCCCNC(CC(=O)c2ccc(C(C)C)cc2)C(=O)Nc2ccccc2)C(=O)Nc2ccccc2)cc1` (mixture of isomers), the IC50 entry against Cholinesterase [3] and on Acetylcholinesterase [4] was “ND(Insoluble)” in each case.
Regarding `CC(C)c1ccc(C(=O)CC(C(=O)Nc2ccccc2)n2ccnc2)c(C(C)C)c1` (racemic), the inhibition entry in assay [8] and in assay [9] was “Active” in each case. Also, the IC50 on Cholinesterase [1] was over 20 µM.
`CC(C)c1ccc(C(=O)CC(C(=O)Nc2ccccc2)N2CCCCC2)c(C(C)C)c1` (racemic) registered an inhibition in assay [11] of 39.9%.
In turn, `O=C(CC(C(=O)Nc1ccccc1)N1CCCCC1)c1ccc2c(c1)CCCC2` (racemic) gave an inhibition in assay [11] of 21.5%.
On Acetylcholinesterase [2], `CC(C)c1ccc(C(=O)CC(C(=O)Nc2ccccc2)N2CCOCC2)cc1` (racemic) returned an IC50 of over 100 µM. Further, in assay [5], the inhibition turned out to be 27.2%.
As to `COc1ccc(C(=O)CC(NCCCCCCCCNC(CC(=O)c2ccc(OC)cc2)C(=O)Nc2ccccc2)C(=O)Nc2ccccc2)cc1` (mixture of isomers), the IC50 entry on Cholinesterase [3] and at Acetylcholinesterase [4] was “ND(Insoluble)” in each case.
`COc1ccc(C(=O)CC(C(=O)Nc2ccccc2)N2CCOCC2)cc1` (racemic): in assay [12], the inhibition came out at 38.7%. At Cholinesterase [1], this molecule yielded an IC50 of over 100 µM.
As to `O=C(CC(NCCCCCCCCNC(CC(=O)c1ccc2c(c1)CCCC2)C(=O)Nc1ccccc1)C(=O)Nc1ccccc1)c1ccc2c(c1)CCCC2` (mixture of isomers), the IC50 entry on Cholinesterase [3] and at Acetylcholinesterase [4] was “ND(Insoluble)” each time.
In turn, `CC(C)c1ccc(C(=O)CC(C(=O)Nc2ccccc2)n2ccnc2)cc1` (racemic) had an inhibition in assay [13] of 10%.
As to `O=C(CC(C(=O)Nc1ccccc1)n1ccnc1)c1ccc(Cl)cc1` (racemic), the IC50 entry on Cholinesterase [3] and at Acetylcholinesterase [4] was “ND(Insoluble)” in each case.
In assay [10], `O=C(CC(C(=O)Nc1ccccc1)N1CCCCC1)c1ccccc1` (racemic) returned an inhibition of 34.8%. For the same molecule, the IC50 at Acetylcholinesterase [2] is over 100 µM.

As usually defined, the IC50 is the concentration that gives 50% inhibition. Read a low IC50 as greater potency. A word on the inhibition: it is the relative decrease from the control value, in per cent. One may read the Ki as a dissociation constant, usually derived from enzyme kinetics or from competition with a known ligand.

These data come from ChEMBL document CHEMBL1156836, “4-Aryl-4-oxo-N-phenyl-2-aminylbutyramides as acetyl- and butyrylcholinesterase inhibitors. Preparation, anticholinesterase activity, docking study, and 3D structure-activity relationship based on molecular interaction fields” (Bioorg Med Chem, 2010).
